Consider 17 compounds from patent US10219516B2, “Molecules having pesticidal utility, and intermediates, compositions, and processes, related thereto” (priority 2015, dated 2019).

Read-outs that look alike come from different tables or passages of the source.

Holding throughout (type): in vivo
The subject of test [1] is Green Peach Aphid (Myzus persicae, MYZUPE). Briefly: Bioassay on Green Peach Aphid (GPA), foliar spray on infested cabbage seedlings. To be noted: 72 h. The gist of the method: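 Cabbage seedlings (2-3 true leaves) infested with 20-50 wingless adult and nymph aphids one day before treatment; sprayed to runoff at 200 ppm in 0.025% Tween 20 water with 20% acetone/methanol, four pots per treatment. Held three days at about 25° C; live aphids counted, % control by Abbott's correction versus solvent check.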

The subject of test [2] is Beet Armyworm (Spodoptera exigua, LAPHEG). Briefly: Bioassay on Beet Armyworm (BAW), 128-well diet tray assay. The gist of the method:
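Diet tray, 8 wells/compound; 50 μg/cm^2 applied to diet surface (90:10 acetone-water), dried. 1–5 L2 larvae/well; 25° C., 14:10 L:D, 5–7 d. Read-out: % mortality, mean of 8 wells.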

Test [3] has as its system Cabbage Looper (Trichoplusia ni, TRIPNI). The experiment in a line: Bioassay on Cabbage Looper (CL), 128-well diet tray assay. To be noted: Trichoplusia ni. The gist of the method: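 Second-instar larvae, one to five per well, placed on artificial diet treated with 50 μg/cm^2 test molecule in 90:10 acetone-water, dried before infestation. Held 5–7 days at 25° C, 14:10 light-dark; percent mortality averaged over eight wells.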

The subject of test [4] is Yellow Fever Mosquito (Aedes aegypti, AEDSAE). The experiment in a line: Bioassay on Yellow Fever Mosquito (YFM), 96-well plate larval assay. The conditions noted are these: for YFM (Biological Results, rating): Species YFM (Yellow Fever Mosquito). The gist of the method:
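Compound stocks at 4000 ppm in DMSO were diluted with 90:10 water/acetone, and 15 μL aliquots were dispensed into six replicate plates. About 1-day-old larvae in liver-powder water were added per well. Plates were covered and held at room temperature for 3 days before each well was scored for mortality.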

The mark [5] stands for this setting: foliar, Species GPA (Green Peach Aphid), read-out: GPA (Biological Results, rating).
[6] abbreviates: Species BAW (Beet Armyworm), read-out: BAW (Biological Results, rating).
[7] abbreviates: Species CL (Cabbage Looper), read-out: CL (Biological Results, rating).

In the case of `O=C(Nc1cccc(F)c1)c1cc(NC(=O)[C@H]2[C@H](c3cc(Cl)c(Cl)c(Cl)c3)C2(Cl)Cl)ccc1Cl` (relative stereo) [F50, trans-2-Chloro-5-(2,2-dichloro-3-(3,4,5-trichlorophenyl)cyclopropane-1-carboxamido)-N-(3-fluorophenyl)benzamide], the pest or weed control at 200 µg/mL in test [1] (setting [5]) lay in the range of 0 to 80%. Besides, the pest or weed control at 50 µg/cm2 in test [2] (setting [6]) and in test [3] (setting [7]) was 50 to 100% each time. Also, in test [4], the “YFM (Biological Results, rating)” value was “A (80-100)”.
`O=C(Nc1ccc(F)cc1)c1cc(NC(=O)[C@H]2[C@H](c3ccc(Cl)c(Cl)c3)C2(Cl)Cl)ccc1Cl` (relative stereo) [F14, trans-2-Chloro-5-(2,2-dichloro-3-(3,4-dichlorophenyl)cyclopropane-1-carboxamido)-N-(4-fluorophenyl)benzamide]: the pest or weed control at 200 µg/mL in test [1] (setting [5]) was 80 to 100%. Moreover, the pest or weed control at 50 µg/cm2 in test [2] (setting [6]) and in test [3] (setting [7]) was 50 to 100% each time. Further, the “YFM (Biological Results, rating)” value in test [4] is listed as “A (80-100)”.
As for `O=C(Nc1ccc(F)cc1)c1cc(NC(=O)[C@H]2[C@H](c3cc(Cl)cc(Cl)c3)C2(Cl)Cl)ccc1Cl` (relative stereo) [F1, trans-2-chloro-5-(2,2-dichloro-3-(3,5-dichlorophenyl)cyclopropane-1-carboxamido)-N-(4-fluorophenyl)benzamide], the pest or weed control at 200 µg/mL in test [1] (setting [5]) fell in the range of 0 to 80%. The pest or weed control at 50 µg/cm2 in test [2] (setting [6]) and in test [3] (setting [7]) was 50 to 100% in each case. In test [4], the “YFM (Biological Results, rating)” value is “A (80-100)”.
As for `CN(C(=O)c1cc(NC(=O)[C@H]2[C@H](c3cc(Cl)cc(Cl)c3)C2(Cl)Cl)ccc1Cl)c1ccc(F)cc1F` (relative stereo) [F44, trans-2-Chloro-5-(2,2-dichloro-3-(3,5-dichlorophenyl)cyclopropane-1-carboxamido)-N-(2,4-difluorophenyl)-N-methylbenzamide], the pest or weed control at 200 µg/mL in test [1] (setting [5]) fell in the range of 80 to 100%. Besides, the pest or weed control at 50 µg/cm2 in test [2] (setting [6]) and in test [3] (setting [7]) was 50 to 100% throughout. Besides, in test [4], the “YFM (Biological Results, rating)” value is given as “A (80-100)”.
On to `O=C(Nc1c(F)cccc1F)c1cc(NC(=O)[C@H]2[C@H](c3cc(Cl)cc(Cl)c3)C2(Br)Br)ccc1Cl` (relative stereo) [F162, trans-2-Chloro-5-(2,2-dibromo-3-(3,5-dichlorophenyl)cyclopropane-1-carboxamido)-N-(2,6-difluorophenyl)benzamide], for which the pest or weed control at 200 µg/mL in test [1] (setting [5]) lay within 0 to 80%. The pest or weed control at 50 µg/cm2 in test [2] (setting [6]) and in test [3] (setting [7]) was 50 to 100% in each case. Besides, the “YFM (Biological Results, rating)” value in test [4] is “B (More than 0-Less than 80)”.
Regarding `O=C(Nc1ccc(F)cc1)c1cc(NC(=O)[C@@H]2[C@@H](c3cc(Cl)c(Cl)c(Cl)c3)C2(Cl)Cl)ccc1Cl` [F280, 2-Chloro-5-((1S,3S)-2,2-dichloro-3-(3,4,5-trichlorophenyl)cyclopropane-1-carboxamido)-N-(4-fluorophenyl)benzamide], the pest or weed control at 200 µg/mL in test [1] (setting [5]) is 0 to 80%. Further, the pest or weed control at 50 µg/cm2 in test [2] (setting [6]) and in test [3] (setting [7]) was 50 to 100% each time. Moreover, in test [4], the “YFM (Biological Results, rating)” value is listed as “A (80-100)”.
On to `O=C(Nc1cccc(C(F)(F)F)c1)c1cc(NC(=O)[C@H]2[C@H](c3cc(Cl)cc(Cl)c3)C2(Cl)Cl)ccc1Cl` (relative stereo) [PF71, trans-2-Chloro-5-(2,2-dichloro-3-(3,5-dichlorophenyl)cyclopropane-1-carboxamido)-N-(3-(trifluoromethyl)phenyl)benzamide], for which the pest or weed control at 200 µg/mL in test [1] (Green Peach Aphid, foliar spray on cabbage seedlings, read-out: GPA rating) lay in the range of 0 to 80%. The pest or weed control at 50 µg/cm2 in test [2] (Beet Armyworm, 128-well diet tray assay, read-out: BAW rating) lay in the range of 50 to 100%; in test [3] (Cabbage Looper, 128-well diet tray assay, read-out: CL rating), 50 to 100%. In addition, the YFM rating result in test [4] (Yellow Fever Mosquito, 96-well plate larval assay) is reported as “A (80-100)”.
`CN(C(=O)c1cc(NC(=O)[C@H]2[C@H](c3cc(Cl)cc(Cl)c3)C2(Cl)Cl)ccc1F)c1cccc(F)c1` (relative stereo) [F46, trans-5-(2,2-Dichloro-3-(3,5-dichlorophenyl)cyclopropane-1-carboxamido)-2-fluoro-N-(3-fluorophenyl)-N-methylbenzamide]: in test [1] (setting [5]), the pest or weed control at 200 µg/mL lay within 0 to 80%. Further, the pest or weed control at 50 µg/cm2 in test [2] (setting [6]) and in test [3] (setting [7]) was 50 to 100% in each case. Also, the “YFM (Biological Results, rating)” value in test [4] was “A (80-100)”.
In the case of `O=C(Nc1ccc(F)cc1F)c1cc(NC(=O)[C@H]2[C@H](c3cc(Cl)cc(Cl)c3)C2(Cl)Cl)ccc1Cl` (relative stereo) [F18, trans-2-Chloro-5-(2,2-dichloro-3-(3,5-dichlorophenyl)cyclopropane-1-carboxamido)-N-(2,4-difluorophenyl)benzamide], the pest or weed control at 200 µg/mL in test [1] (setting [5]) was in the range of 80 to 100%. The pest or weed control at 50 µg/cm2 in test [2] (setting [6]) and in test [3] (setting [7]) was 50 to 100% throughout. Further, in test [4], the “YFM (Biological Results, rating)” value is on record as “A (80-100)”.
In the case of `N#Cc1cccc(NC(=O)c2cc(NC(=O)[C@H]3[C@H](c4cc(Cl)cc(Cl)c4)C3(Cl)Cl)ccc2Cl)c1` (relative stereo) [F21, trans-2-Chloro-N-(3-cyanophenyl)-5-(2,2-dichloro-3-(3,5-dichlorophenyl)cyclopropane-1-carboxamido)benzamide], the pest or weed control at 200 µg/mL in test [1] (setting [5]) is 0 to 80%. The pest or weed control at 50 µg/cm2 in test [2] (setting [6]) and in test [3] (setting [7]) was 50 to 100% in each case. Further, the “YFM (Biological Results, rating)” value in test [4] is reported as “A (80-100)”.
As for `O=C(Nc1ccc(F)cc1)c1cc(NC(=O)[C@H]2[C@H](c3ccc(OC(F)(F)F)c(Cl)c3)C2(Cl)Cl)ccc1Cl` (relative stereo) [F79, trans-2-Chloro-5-(2,2-dichloro-3-(3-chloro-4-(trifluoromethoxy)phenyl)cyclopropane-1-carboxamido)-N-(4-fluorophenyl)benzamide], the pest or weed control at 200 µg/mL in test [1] (setting [5]) was in the range of 80 to 100%. In addition, the pest or weed control at 50 µg/cm2 in test [2] (setting [6]) and in test [3] (setting [7]) was 50 to 100% each time. Further, in test [4], the “YFM (Biological Results, rating)” value is on record as “B (More than 0-Less than 80)”.
In the case of `O=C(Nc1cccc(F)c1)c1cc(NC(=O)[C@H]2[C@H](c3cc(Cl)cc(Cl)c3)C2(Cl)Cl)ccc1Cl` (relative stereo) [F20, trans-2-Chloro-5-(2,2-dichloro-3-(3,5-dichlorophenyl)cyclopropane-1-carboxamido)-N-(3-fluorophenyl)benzamide], in test [1] (setting [5]), the pest or weed control at 200 µg/mL was 0 to 80%. Besides, the pest or weed control at 50 µg/cm2 in test [2] (setting [6]) and in test [3] (setting [7]) was 50 to 100% each time. The “YFM (Biological Results, rating)” value in test [4] is “A (80-100)”.
`CCN(C(=O)c1cc(NC(=O)[C@H]2[C@H](c3cc(Cl)cc(Cl)c3)C2(Cl)Cl)ccc1Cl)c1ccc(F)cc1` (relative stereo) [F99, trans-2-Chloro-5-(2,2-dichloro-3-(3,5-dichlorophenyl)cyclopropane-1-carboxamido)-N-ethyl-N-(4-fluorophenyl)benzamide]: the pest or weed control at 200 µg/mL in test [1] (setting [5]) lay in the range of 80 to 100%. Further, the pest or weed control at 50 µg/cm2 in test [2] (setting [6]) and in test [3] (setting [7]) was 50 to 100% each time. The “YFM (Biological Results, rating)” value in test [4] is listed as “B (More than 0-Less than 80)”.
For the compound `O=C(Nc1cccc(F)c1F)c1cc(NC(=O)[C@H]2[C@H](c3cc(Cl)cc(Cl)c3)C2(Cl)Cl)ccc1Cl` (relative stereo) [F22, trans-2-Chloro-5-(2,2-dichloro-3-(3,5-dichlorophenyl)cyclopropane-1-carboxamido)-N-(2,3-difluorophenyl)benzamide], the pest or weed control at 200 µg/mL in test [1] (setting [5]) was in the range of 80 to 100%. The pest or weed control at 50 µg/cm2 in test [2] (setting [6]) and in test [3] (setting [7]) was 50 to 100% in each case. Further, the “YFM (Biological Results, rating)” value in test [4] was “A (80-100)”.
As for `O=C(Nc1cccc(F)c1)c1cc(NC(=O)[C@H]2[C@H](c3ccc(Cl)c(Cl)c3)C2(Cl)Cl)ccc1Cl` (relative stereo) [F51, trans-2-Chloro-5-(2,2-dichloro-3-(3,4-dichlorophenyl)cyclopropane-1-carboxamido)-N-(3-fluorophenyl)benzamide], the pest or weed control at 200 µg/mL in test [1] (setting [5]) fell in the range of 80 to 100%. The pest or weed control at 50 µg/cm2 in test [2] (setting [6]) and in test [3] (setting [7]) was 50 to 100% each time. In addition, the “YFM (Biological Results, rating)” value in test [4] is on record as “A (80-100)”.
Take `O=C(Nc1ccccc1Cl)c1cc(NC(=O)[C@H]2[C@H](c3cc(Cl)cc(Cl)c3)C2(Cl)Cl)ccc1Cl` (relative stereo) [F38, trans-2-Chloro-N-(2-chlorophenyl)-5-(2,2-dichloro-3-(3,5-dichlorophenyl)cyclopropane-1-carboxamido)benzamide]: the pest or weed control at 200 µg/mL in test [1] (setting [5]) is 80 to 100%. Also, the pest or weed control at 50 µg/cm2 in test [2] (setting [6]) and in test [3] (setting [7]) was 50 to 100% each time. Also, the “YFM (Biological Results, rating)” value in test [4] is reported as “A (80-100)”.
In the case of `Cc1ccccc1NC(=O)c1cc(NC(=O)[C@H]2[C@H](c3cc(Cl)cc(Cl)c3)C2(Cl)Cl)ccc1Cl` (relative stereo) [F9, trans-2-Chloro-5-(2,2-dichloro-3-(3,5-dichlorophenyl)cyclopropane-1-carboxamido)-N-(o-tolyl)benzamide], the pest or weed control at 200 µg/mL in test [1] (setting [5]) lay in the range of 80 to 100%. Also, the pest or weed control at 50 µg/cm2 in test [2] (setting [6]) and in test [3] (setting [7]) was 50 to 100% throughout. In addition, the “YFM (Biological Results, rating)” value in test [4] is given as “A (80-100)”.
